The numbers were not newly measured in patent US20100151020A1, “DRUG […] SYSTEM FOR ZERO ORDER, ZERO ORDER BIPHASIC, ASCENDING OR […] […] OF METHYLPHENIDATE” (priority 2008, published 2010), which cites them from elsewhere.

Where a name gives a salt, the structure may show the parent alone. Read-outs that look alike come from different tables or passages of the source.

The conditions of data set [1]: chronic methylphenidate dosing.
For data set [2] the following is noted: reports.

With `COC(=O)C(c1ccccc1)C1CCCCN1` (stereo not shown) [methylphenidate HCl], the primary adverse events result in data set [1] is “nervousness, insomnia, and appetite suppression”. For the same compound, in data set [2], the “AD/HD patients responding positively” value is recorded as 70-90%. The drug excreted (adults) is given as 80%. For the same compound, for the setting “children”, the drug excreted is 67%. For the same compound, for the setting “children, immediate release”, the time to peak was 1.9 h and the “time to peak, range” value is 0.3 to 4.4 h. Besides, the pharmacokinetic half-life (immediate release) is 2 to 3 h.
